Laboratory results from patent US20210254272A1, “TEXTILES HAVING ANTIMICROBIAL PROPERTIES” (Livinguard AG, priority 2015, published 2021).

Tested on: E. coli (ATCC 25922)
Test: AATCC Test Method 100-2012 antibacterial activity of the treated textile, after 25 washes and 12 abrasion cycles, contact time 60 minutes
Assay type: cell-based
Details: for Performance Test-Log reduction of antimicrobial performance: pad process, 2 min
Procedure: The antibacterial activity of the textile was tested in accordance with AATCC Test Method 100-2012. Prior to the test, the fabric was cut into coupons of 2×4 inches and washed separately 25 times, and exposed to 12 abrasion cycles, as per US EPA protocol 90072PA4 (described further below). The tests were made against E. coli (ATCC 25922). Contact time was 60 minutes, after inoculating with 10^8 CFU per coupon.

With `CCCC1COC(Cn2cncn2)(c2ccc(Cl)cc2Cl)O1` (stereo not shown) [Propiconazole, propiconazole] the “Performance Test-Log reduction of antimicrobial performance” value (from here on “Performance Test-Log reduction”) (single agent 5 gm/lit, curing 180° C.) was 0.98 Log, the “Performance Test-Log reduction” value (single agent 10 gm/lit, curing 120° C.) was 0.25 Log and the “Performance Test-Log reduction” value (single agent 10 gm/lit, curing 140° C.) was 0.38 Log. For the same compound, the “Performance Test-Log reduction” value (single agent 10 gm/lit, curing 150° C.) was 0.42 Log, the “Performance Test-Log reduction” value (single agent 10 gm/lit, curing 160° C.) was 0.56 Log and the “Performance Test-Log reduction” value (single agent 10 gm/lit, curing 180° C.) was 2.11 Log. The “Log reduction of antimicrobial performance” value (pure cotton fabric, exhaust 80° C., 60 min, dosage 0.1% o.w.f) was 0.63 Log, the “Log reduction of antimicrobial performance” value (pure cotton fabric, exhaust 80° C., 60 min, dosage 0.2% o.w.f) was 1.45 Log and the “Log reduction of antimicrobial performance” value (pure cotton fabric, exhaust 80° C., 60 min, dosage 0.5% o.w.f) was 1.95 Log. For the same compound, the “Log reduction of antimicrobial performance” value (pure cotton fabric, exhaust 80° C., 60 min, dosage 0.8% o.w.f) was 2.34 Log, the “Log reduction of antimicrobial performance” value (pure cotton fabric, exhaust 80° C., 60 min, dosage 1.0% o.w.f) was 2.85 Log and the “Log reduction of antimicrobial performance” value (pure cotton, exhaust 80° C., 1% o.w.f, 60 min, curing 180° C., curing dwell time 0.5 min) was 0.4 Log. The “Log reduction of antimicrobial performance” value (pure cotton, exhaust 80° C., 1% o.w.f, 60 min, curing 180° C., curing dwell time 1.0 min) was 0.8 Log, the “Log reduction of antimicrobial performance” value (pure cotton, exhaust 80° C., 1% o.w.f, 60 min, curing 180° C., curing dwell time 1.5 min) was 2.2 Log and the “Log reduction of antimicrobial performance” value (pure cotton, exhaust 80° C., 1% o.w.f, 60 min, curing 180° C., curing dwell time 2.0 min) was 2.8 Log. The “Log reduction of antimicrobial performance” value (pure cotton, exhaust 80° C., 1% o.w.f, 60 min, curing 180° C., curing dwell time 2.5 min) was 2.3 Log, the “Log reduction of antimicrobial performance” value (pure cotton, exhaust 80° C., 1% o.w.f, 60 min, curing 180° C., curing dwell time 3.0 min) was 1.2 Log and the “Log reduction of antimicrobial performance” value (pure polyester fabric, exhaust 80° C., 60 min, curing 180° C., curing dwell time 0.5 min) was 0.4 Log. For the same compound, the “Log reduction of antimicrobial performance” value (pure polyester fabric, exhaust 80° C., 60 min, curing 180° C., curing dwell time 1.0 min) was 0.8 Log, the “Log reduction of antimicrobial performance” value (pure polyester fabric, exhaust 80° C., 60 min, curing 180° C., curing dwell time 1.5 min) was 2.2 Log and the “Log reduction of antimicrobial performance” value (pure polyester fabric, exhaust 80° C., 60 min, curing 180° C., curing dwell time 2.0 min) was 2.74 Log. For the same compound, the “Log reduction of antimicrobial performance” value (pure polyester fabric, exhaust 80° C., 60 min, curing 180° C., curing dwell time 2.5 min) was 2.35 Log, the “Log reduction of antimicrobial performance” value (pure polyester fabric, exhaust 80° C., 60 min, curing 180° C., curing dwell time 3.0 min) was 1.2 Log and the “Log reduction of antimicrobial performance” value (pure polyester fabric, exhaust 80° C., 60 min, dosage 0.1% o.w.f) was 0.57 Log. The “Log reduction of antimicrobial performance” value (pure polyester fabric, exhaust 80° C., 60 min, dosage 0.2% o.w.f) was 1.35 Log, the “Log reduction of antimicrobial performance” value (pure polyester fabric, exhaust 80° C., 60 min, dosage 0.5% o.w.f) was 1.67 Log and the “Log reduction of antimicrobial performance” value (pure polyester fabric, exhaust 80° C., 60 min, dosage 0.8% o.w.f) was 2.14 Log. The “Log reduction of antimicrobial performance” value (pure polyester fabric, exhaust 80° C., 60 min, dosage 1.0% o.w.f) was 2.73 Log, the “Log reduction of antimicrobial performance” value (solution dosage 0.10% o.w.f, exhaust temperature 40° C., process time 60 min) was 0 Log and the “Log reduction of antimicrobial performance” value (solution dosage 0.10% o.w.f, exhaust temperature 60° C., process time 60 min) was 0 Log. For the same compound, the “Log reduction of antimicrobial performance” value (solution dosage 0.10% o.w.f, exhaust temperature 65° C., process time 60 min) was 0 Log, the “Log reduction of antimicrobial performance” value (solution dosage 0.10% o.w.f, exhaust temperature 70° C., process time 60 min) was 0 Log and the “Log reduction of antimicrobial performance” value (solution dosage 0.10% o.w.f, exhaust temperature 75° C., process time 60 min) was 0.59 Log. For the same compound, the “Log reduction of antimicrobial performance” value (solution dosage 0.10% o.w.f, exhaust temperature 80° C., process time 60 min) was 0.56 Log, the “Log reduction of antimicrobial performance” value (solution dosage 0.10% o.w.f, exhaust temperature 85° C., process time 60 min) was 0.83 Log and the “Log reduction of antimicrobial performance” value (solution dosage 0.10% o.w.f, exhaust temperature 90° C., process time 60 min) was 0.83 Log. The “Log reduction of antimicrobial performance” value (solution dosage 0.10% o.w.f, exhaust temperature 95° C., process time 60 min) was 0.83 Log, the “Log reduction of antimicrobial performance” value (solution dosage 0.20% o.w.f, exhaust temperature 40° C., process time 60 min) was 0 Log and the “Log reduction of antimicrobial performance” value (solution dosage 0.20% o.w.f, exhaust temperature 60° C., process time 60 min) was 0.08 Log. The “Log reduction of antimicrobial performance” value (solution dosage 0.20% o.w.f, exhaust temperature 65° C., process time 60 min) was 0.09 Log, the “Log reduction of antimicrobial performance” value (solution dosage 0.20% o.w.f, exhaust temperature 70° C., process time 60 min) was 0.12 Log and the “Log reduction of antimicrobial performance” value (solution dosage 0.20% o.w.f, exhaust temperature 75° C., process time 60 min) was 0.89 Log. The “Log reduction of antimicrobial performance” value (solution dosage 0.20% o.w.f, exhaust temperature 80° C., process time 60 min) was 1.34 Log, the “Log reduction of antimicrobial performance” value (solution dosage 0.20% o.w.f, exhaust temperature 85° C., process time 60 min) was 1.45 Log and the “Log reduction of antimicrobial performance” value (solution dosage 0.20% o.w.f, exhaust temperature 90° C., process time 60 min) was 1.45 Log. The “Log reduction of antimicrobial performance” value (solution dosage 0.20% o.w.f, exhaust temperature 95° C., process time 60 min) was 1.45 Log, the “Log reduction of antimicrobial performance” value (solution dosage 0.50% o.w.f, exhaust temperature 40° C., process time 60 min) was 0 Log and the “Log reduction of antimicrobial performance” value (solution dosage 0.50% o.w.f, exhaust temperature 60° C., process time 60 min) was 0.12 Log. The “Log reduction of antimicrobial performance” value (solution dosage 0.50% o.w.f, exhaust temperature 65° C., process time 60 min) was 0.13 Log, the “Log reduction of antimicrobial performance” value (solution dosage 0.50% o.w.f, exhaust temperature 70° C., process time 60 min) was 0.19 Log and the “Log reduction of antimicrobial performance” value (solution dosage 0.50% o.w.f, exhaust temperature 75° C., process time 60 min) was 1.12 Log. For the same compound, the “Log reduction of antimicrobial performance” value (solution dosage 0.50% o.w.f, exhaust temperature 80° C., process time 60 min) was 1.98 Log, the “Log reduction of antimicrobial performance” value (solution dosage 0.50% o.w.f, exhaust temperature 85° C., process time 60 min) was 2.04 Log and the “Log reduction of antimicrobial performance” value (solution dosage 0.50% o.w.f, exhaust temperature 90° C., process time 60 min) was 2.06 Log. For the same compound, the “Log reduction of antimicrobial performance” value (solution dosage 0.50% o.w.f, exhaust temperature 95° C., process time 60 min) was 2.06 Log, the “Log reduction of antimicrobial performance” value (solution dosage 0.80% o.w.f, exhaust temperature 40° C., process time 60 min) was 0 Log and the “Log reduction of antimicrobial performance” value (solution dosage 0.80% o.w.f, exhaust temperature 60° C., process time 60 min) was 0.18 Log. For the same compound, the “Log reduction of antimicrobial performance” value (solution dosage 0.80% o.w.f, exhaust temperature 65° C., process time 60 min) was 0.19 Log, the “Log reduction of antimicrobial performance” value (solution dosage 0.80% o.w.f, exhaust temperature 70° C., process time 60 min) was 0.23 Log and the “Log reduction of antimicrobial performance” value (solution dosage 0.80% o.w.f, exhaust temperature 75° C., process time 60 min) was 1.35 Log. The “Log reduction of antimicrobial performance” value (solution dosage 0.80% o.w.f, exhaust temperature 80° C., process time 60 min) was 2.34 Log, the “Log reduction of antimicrobial performance” value (solution dosage 0.80% o.w.f, exhaust temperature 85° C., process time 60 min) was 2.56 Log and the “Log reduction of antimicrobial performance” value (solution dosage 0.80% o.w.f, exhaust temperature 90° C., process time 60 min) was 2.61 Log. The “Log reduction of antimicrobial performance” value (solution dosage 0.80% o.w.f, exhaust temperature 95° C., process time 60 min) was 2.61 Log, the “Log reduction of antimicrobial performance” value (solution dosage 1.00% o.w.f, exhaust temperature 40° C., process time 60 min) was 0 Log and the “Log reduction of antimicrobial performance” value (solution dosage 1.00% o.w.f, exhaust temperature 60° C., process time 60 min) was 0.25 Log. The “Log reduction of antimicrobial performance” value (solution dosage 1.00% o.w.f, exhaust temperature 65° C., process time 60 min) was 0.26 Log, the “Log reduction of antimicrobial performance” value (solution dosage 1.00% o.w.f, exhaust temperature 70° C., process time 60 min) was 0.32 Log and the “Log reduction of antimicrobial performance” value (solution dosage 1.00% o.w.f, exhaust temperature 75° C., process time 60 min) was 1.42 Log. The “Log reduction of antimicrobial performance” value (solution dosage 1.00% o.w.f, exhaust temperature 80° C., process time 60 min) was 2.87 Log, the “Log reduction of antimicrobial performance” value (solution dosage 1.00% o.w.f, exhaust temperature 85° C., process time 60 min) was 2.89 Log and the “Log reduction of antimicrobial performance” value (solution dosage 1.00% o.w.f, exhaust temperature 90° C., process time 60 min) was 2.91 Log. For the same compound, the “Log reduction of antimicrobial performance” value (solution dosage 1.00% o.w.f, exhaust temperature 95° C., process time 60 min) was 2.91 Log.
